Results taken from US20260022122A1 (Checkmate Therapeutics Inc., priority 2022, published 2026).

biological target: NamPT (Homo sapiens (Human), UniProt P43490); assay: Measurement of NamPT inhibitory ability IC50 (NamPT colorimetric assay kit, Abcam ab221819); type: biochemical; conditions: NamPT recombinant protein, WST-1 absorbance at 450 nm; class key in μM
Procedure: To test the effect of the compound prepared in each Example on the substrate decomposition rate (Vmax/min) mediated by NamPT enzyme, IC50 was calculated. In this experiment, the NamPT colorimetric assay kit (ab221819) produced by Abcam was used, and Graph prism software was used for IC50 calculation. PRPP, ATP, NMNAT1, NamPT recombinant proteins, and various concentrations of the compound of each Example (half-log step dilution from 100 μM) were added to nicotinamide to synthesize nicotinamide adenine dinucleotide (NAD) from the nicotinamide, and a total of 60 μL of the reaction solution was reacted at room temperature for 1 hour. WST-1 formazan converted by NAD generated by adding WST-1 was measured. The result of the reaction was obtained by the following formula by measuring absorbance using EnVision2105 (PerkinElmer) at 450 nm for 60 minutes at 2-minute intervals.
In Mathematical Formula 1, T1 and T2 are arbitrary times, and A1 and A2 represent the absorbance measured at T1 and T2 at 450 nm, respectively.
The results of measuring the NamPT inhibition activity of the compound of each Example obtained through the above experiment are shown in Table 1 in the unit of IC50 (nM), and the result values are expressed as follows.

Chain of NamPT (P43490 whole entry): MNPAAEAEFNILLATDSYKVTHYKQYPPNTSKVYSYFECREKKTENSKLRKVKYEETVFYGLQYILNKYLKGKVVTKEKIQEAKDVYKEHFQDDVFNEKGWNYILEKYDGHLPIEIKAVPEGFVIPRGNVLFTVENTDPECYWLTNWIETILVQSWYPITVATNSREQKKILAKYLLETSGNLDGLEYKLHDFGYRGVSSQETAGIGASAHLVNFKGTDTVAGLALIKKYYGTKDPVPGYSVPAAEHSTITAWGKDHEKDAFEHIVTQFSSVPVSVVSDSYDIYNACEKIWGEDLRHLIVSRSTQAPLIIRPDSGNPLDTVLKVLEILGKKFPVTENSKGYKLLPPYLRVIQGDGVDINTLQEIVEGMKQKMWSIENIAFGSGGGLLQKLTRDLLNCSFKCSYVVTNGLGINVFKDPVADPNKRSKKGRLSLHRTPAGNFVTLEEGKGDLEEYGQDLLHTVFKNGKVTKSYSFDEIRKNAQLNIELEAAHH

Compound	IC50
Nc1ccc2oc(-c3ccc(CNC(=O)c4cnc5nccn5c4)cc3)nc2c1 [Example 46, N-[[4-(5-amino-1,3-benzoxazol-2-yl)phenyl]methyl]imidazo[1,2-a]pyrimidin-6-carboxamide]	0.051 to 0.1 µM
O=C(NCc1ccc(-c2nc3cc(Cl)ccc3s2)cc1)c1cnc2nccn2c1 [Example 49, N-[[4-(5-chloro-1,3-benzothiazol-2-yl)phenyl]methyl]imidazo[1,2-a]pyrimidin-6-carboxamide]	< 0.05 µM
O=C(NCc1ccc(-c2nc3ccc(Cl)cc3s2)cc1)c1cnc2nccn2c1 [Example 50, N-[[4-(6-chloro-1,3-benzothiazol-2-yl)phenyl]methyl]imidazo[1,2-a]pyrimidin-6-carboxamide]	0.051 to 0.1 µM
COc1ccc2sc(-c3ccc(CNC(=O)c4cnc5nccn5c4)cc3)nc2c1 [Example 51, N-[[4-(5-methoxy-1,3-benzothiazol-2-yl)phenyl]methyl]imidazo[1,2-a]pyrimidin-6-carboxamide]	< 0.05 µM
COc1ccc2nc(-c3ccc(CNC(=O)c4cnc5nccn5c4)cc3)sc2c1 [Example 52, N-[[4-(6-methoxy-1,3-benzothiazol-2-yl)phenyl]methyl]imidazo[1,2-a]pyrimidin-6-carboxamide]	< 0.05 µM
O=C(NCc1ccc(-c2nc3cc(Oc4ccccc4)ccc3o2)cc1)c1cnc2nccn2c1 [Example 53, N-[[4-(5-phenoxy-1,3-benzoxazol-2-yl)phenyl]methyl]imidazo[1,2-a]pyrimidin-6-carboxamide]	< 0.05 µM
CCCOc1ccc2oc(-c3ccc(CNC(=O)c4cnc5nccn5c4)cc3)nc2c1 [Example 54, N-[[4-(5-propoxy-1,3-benzoxazol-2-yl)phenyl]methyl]imidazo[1,2-a]pyrimidin-6-carboxamide]	0.051 to 0.1 µM
O=C(NCc1ccc(-c2nc3cc(OCc4ccccc4)ccc3o2)cc1)c1cnc2nccn2c1 [Example 55, N-[[4-(5-benzyloxy-1,3-benzoxazol-2-yl)phenyl]methyl]imidazo[1,2-a]pyrimidin-6-carboxamide]	> 1 µM
O=C(NCc1ccc(-c2nc3cc(-c4ccccc4)ccc3o2)cc1)c1cnc2nccn2c1 [Example 56, N-[[4-(5-phenyl-1,3-benzoxazol-2-yl)phenyl]methyl]imidazo[1,2-a]pyrimidin-6-carboxamide]	0.11 to 1 µM
O=C(NCc1ccc(-c2nc3ccc(Oc4ccccc4)cc3o2)cc1)c1cnc2nccn2c1 [Example 57, N-[[4-(6-phenoxy-1,3-benzoxazol-2-yl)phenyl]methyl]imidazo[1,2-a]pyrimidin-6-carboxamide]	> 1 µM
O=C(NCc1ccc(-c2nc3ccc(Oc4cccnc4)cc3o2)cc1)c1cnc2nccn2c1 [Example 58, N-[[4-[6-(3-pyridyloxy)-1,3-benzoxazol-2-yl]phenyl]methyl]imidazo[1,2-a]pyrimidin-6-carboxamide]	< 0.05 µM
O=C(NCc1ccc(-c2nc3ccc(-c4ccccc4)cc3o2)cc1)c1cnc2nccn2c1 [Example 59, N-[[4-(6-phenyl-1,3-benzoxazol-2-yl)phenyl]methyl]imidazo[1,2-a]pyrimidin-6-carboxamide]	> 1 µM
O=C(NCc1ccc(-c2nc3ccc(Cl)nc3o2)cc1)c1cnc2nccn2c1 [Example 60, N-[[4-(5-chlorooxazolo[5,4-b]pyridin-2-yl)phenyl]methyl]imidazo[1,2-a]pyrimidin-6-carboxamide]	< 0.05 µM
Cc1ccc2nc(-c3ccc(CNC(=O)c4ccc5nccn5c4)cc3)oc2c1 [Example 61, N-[[4-(6-methyl-1,3-benzoxazol-2-yl)phenyl]methyl]imidazo[1,2-a]pyridin-6-carboxamide]	0.11 to 1 µM
O=C(NCc1ccc(-c2nc3cnc(Cl)cc3o2)cc1)c1cnc2nccn2c1 [Example 62]	0.051 to 0.1 µM
O=C(NCc1ccc(-c2nc3ccc(Cl)cc3o2)cn1)c1cnc2nccn2c1 [Example 63, N-[[5-(6-chloro-1,3-benzoxazol-2-yl)-2-pyridyl]methyl]imidazo[1,2-a]pyrimidin-6-carboxamide]	< 0.05 µM
